This is an account of results in the supplement of paper PMC10307832.

Assay in all cases: relative viability (nuclei count vs DMSO), 5 days (fraction); higher = more cells survive
Compound in experiment [1]: CCn1c(-c2nonc2N)nc2cnc(Oc3cccc(NC(=O)c4ccc(OCCN5CCOCC5)cc4)c3)cc21 + C[C@@H](Oc1cc(-c2cnn(C3CCNCC3)c2)cnc1N)c1c(Cl)ccc(F)c1Cl [Crizotinib] (partner 1 µM)
Put shortly:
(§1)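 One day after seeding in 1536-well plates, lung cancer cell lines were dosed by pin tool. Dosing was either single-drug or a fixed anchor-drug dose plus five library-drug doses (not always all listed) in √10 steps. After 5 days, nuclei were stained in one fix-and-stain step and counted on 4× images, and relative viability is the nuclei count of treated wells over that of vehicle wells, given as the median of duplicate plates.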

Compound in experiment [2]: CCC1=CN=CN=C1N2CCN(CC2)CC3=NC4=C(N3)C=C(C=C4)C(F)(F)F + N=C(N)NC(=N)NCCc1ccccc1 [Phenformin] (partner 250 µM)
The procedure, abridged: as §1

Compound in experiment [3]: CCn1c(-c2nonc2N)nc2cnc(Oc3cccc(NC(=O)c4ccc(OCCN5CCOCC5)cc4)c3)cc21 + CCNC(=O)c1noc(-c2cc(C(C)C)c(O)cc2O)c1-c1ccc(CN2CCOCC2)cc1 [Luminespib] (partner 0.01 µM)
The procedure, abridged: as §1

Compound in experiment [4]: N=C1NC(=O)/C(=C/c2ccc(O)cc2)S1 [Mirin] + CS(=O)(=O)CCNCc1ccc(-c2ccc3ncnc(Nc4ccc(OCc5cccc(F)c5)c(Cl)c4)c3c2)o1 [Lapatinib] (partner 2 µM)
Put shortly: as §1

Consider NCI-H3122, for which the relative viability was determined as 0.266 in experiment [1] (first compound 0.04 µM); 0.298 in experiment [1] (first compound 0.1265 µM); 0.342 in experiment [1] (first compound 0.4 µM); 0.318 in experiment [1] (first compound 1.265 µM); 0.346 in experiment [1] (first compound 4 µM); 0.372 in experiment [2] (first compound 0.04 µM). Also, the relative viability in experiment [2] (first compound 0.1265 µM) turned out to be 0.362; in experiment [2] (first compound 0.4 µM) it was 0.318; in experiment [2] (first compound 1.265 µM), 0.359; in experiment [2] (first compound 4 µM), 0.342; in experiment [3] (first compound 0.04 µM), 0.0608; in experiment [3] (first compound 0.1265 µM), 0.0978. The relative viability stood at 0.0882 in experiment [3] (first compound 0.4 µM); 0.0945 in experiment [3] (first compound 1.265 µM); 0.0955 in experiment [3] (first compound 4 µM); 1.04 in experiment [4] (first compound 0.25 µM); 1.02 in experiment [4] (first compound 0.7906 µM); 1.05 in experiment [4] (first compound 2.5 µM). For the same cell line, the relative viability in experiment [4] (first compound 7.906 µM) came to 1.05; in experiment [4] (first compound 25 µM), 1.18.

With PC-3 [JPC-3], the relative viability was 0.961 in experiment [1] (first compound 0.04 µM); 0.96 in experiment [1] (first compound 0.1265 µM); 1.04 in experiment [1] (first compound 0.4 µM); 0.967 in experiment [1] (first compound 1.265 µM); 0.939 in experiment [1] (first compound 4 µM); 0.456 in experiment [2] (first compound 0.04 µM). For the same cell line, the relative viability is 0.456 in experiment [2] (first compound 0.1265 µM); 0.457 in experiment [2] (first compound 0.4 µM); 0.505 in experiment [2] (first compound 1.265 µM); 0.479 in experiment [2] (first compound 4 µM); 0.849 in experiment [3] (first compound 0.04 µM); 0.73 in experiment [3] (first compound 0.1265 µM). For the same cell line, the relative viability stood at 0.718 in experiment [3] (first compound 0.4 µM); 0.726 in experiment [3] (first compound 1.265 µM); 0.626 in experiment [3] (first compound 4 µM); 0.52 in experiment [4] (first compound 0.25 µM); 0.469 in experiment [4] (first compound 0.7906 µM); 0.462 in experiment [4] (first compound 2.5 µM). Moreover, the relative viability in experiment [4] (first compound 7.906 µM) was found to be 0.455; in experiment [4] (first compound 25 µM), 0.491.

Consider PC-14, for which the relative viability in experiment [1] (first compound 0.04 µM) was found to be 0.874; in experiment [1] (first compound 0.1265 µM), 0.884; in experiment [1] (first compound 0.4 µM) it was 0.87; in experiment [1] (first compound 1.265 µM), 0.683; in experiment [1] (first compound 4 µM), 0.7; in experiment [2] (first compound 0.04 µM), 0.463. In addition, the relative viability was 0.472 in experiment [2] (first compound 0.1265 µM); 0.561 in experiment [2] (first compound 0.4 µM); 0.669 in experiment [2] (first compound 1.265 µM); 0.567 in experiment [2] (first compound 4 µM); 0.15 in experiment [3] (first compound 0.04 µM); 0.136 in experiment [3] (first compound 0.1265 µM). In addition, the relative viability is 0.154 in experiment [3] (first compound 0.4 µM); 0.154 in experiment [3] (first compound 1.265 µM); 0.173 in experiment [3] (first compound 4 µM); 0.373 in experiment [4] (first compound 0.25 µM); 0.39 in experiment [4] (first compound 0.7906 µM); 0.339 in experiment [4] (first compound 2.5 µM). Further, the values for the relative viability in experiment [4] (first compound 7.906 µM) and in experiment [4] (first compound 25 µM) were 0.382 and 0.49, respectively.

Regarding RERF-LC-KJ, the relative viability in experiment [1] (first compound 0.04 µM) is 0.886; in experiment [1] (first compound 0.1265 µM) it was 0.822; in experiment [1] (first compound 0.4 µM) it was 0.82; in experiment [1] (first compound 1.265 µM), 0.535; in experiment [1] (first compound 4 µM), 0.36; in experiment [2] (first compound 0.04 µM), 0.407. For the same cell line, the relative viability in experiment [2] (first compound 0.1265 µM) was 0.382; in experiment [2] (first compound 0.4 µM), 0.467; in experiment [2] (first compound 1.265 µM), 0.366; in experiment [2] (first compound 4 µM), 0.41; in experiment [3] (first compound 0.04 µM), 1.35; in experiment [3] (first compound 0.1265 µM), 1.21. Also, the relative viability in experiment [3] (first compound 0.4 µM) was 1.04; in experiment [3] (first compound 1.265 µM), 0.795; in experiment [3] (first compound 4 µM), 0.64; in experiment [4] (first compound 0.25 µM), 0.972; in experiment [4] (first compound 0.7906 µM) it was 0.968; in experiment [4] (first compound 2.5 µM) it was 0.891. The relative viability in experiment [4] (first compound 7.906 µM) turned out to be 0.835; in experiment [4] (first compound 25 µM), 0.95.

As to SK-LU-1, the relative viability in experiment [1] (first compound 0.04 µM) is 1.12; in experiment [1] (first compound 0.1265 µM) it was 0.744; in experiment [1] (first compound 0.4 µM), 0.61; in experiment [1] (first compound 1.265 µM) it was 0.46; in experiment [1] (first compound 4 µM), 0.355; in experiment [2] (first compound 0.04 µM), 0.523. For the same cell line, the relative viability in experiment [2] (first compound 0.1265 µM) turned out to be 0.534; in experiment [2] (first compound 0.4 µM), 0.509; in experiment [2] (first compound 1.265 µM), 0.385; in experiment [2] (first compound 4 µM), 0.579; in experiment [3] (first compound 0.04 µM), 0.231; in experiment [3] (first compound 0.1265 µM), 0.155. The relative viability in experiment [3] (first compound 0.4 µM) came out at 0.189; in experiment [3] (first compound 1.265 µM) it was 0.159; in experiment [3] (first compound 4 µM), 0.172; in experiment [4] (first compound 0.25 µM), 0.974; in experiment [4] (first compound 0.7906 µM), 0.88; in experiment [4] (first compound 2.5 µM), 0.792. In addition, the relative viability in experiment [4] (first compound 7.906 µM) was determined as 0.788; in experiment [4] (first compound 25 µM), 0.541.

For the cell line SK-MES-1, the relative viability in experiment [1] (first compound 0.04 µM) worked out at 1.12; in experiment [1] (first compound 0.1265 µM) it was 0.883; in experiment [1] (first compound 0.4 µM) it was 0.804; in experiment [1] (first compound 1.265 µM), 0.742; in experiment [1] (first compound 4 µM), 0.645; in experiment [2] (first compound 0.04 µM), 0.613. The relative viability is 0.608 in experiment [2] (first compound 0.1265 µM); 0.583 in experiment [2] (first compound 0.4 µM); 0.622 in experiment [2] (first compound 1.265 µM); 0.528 in experiment [2] (first compound 4 µM); 0.728 in experiment [3] (first compound 0.04 µM); 0.681 in experiment [3] (first compound 0.1265 µM). The relative viability in experiment [3] (first compound 0.4 µM) turned out to be 0.525; in experiment [3] (first compound 1.265 µM), 0.485; in experiment [3] (first compound 4 µM) it was 0.37; in experiment [4] (first compound 0.25 µM) it was 0.461; in experiment [4] (first compound 0.7906 µM), 0.469; in experiment [4] (first compound 2.5 µM), 0.544. Also, the relative viability is 0.53 in experiment [4] (first compound 7.906 µM) and 0.624 in experiment [4] (first compound 25 µM).

SW 1573: the relative viability was found to be 0.874 in experiment [1] (first compound 0.04 µM); 0.704 in experiment [1] (first compound 0.1265 µM); 0.707 in experiment [1] (first compound 0.4 µM); 0.519 in experiment [1] (first compound 1.265 µM); 0.391 in experiment [1] (first compound 4 µM); 0.405 in experiment [2] (first compound 0.04 µM). In addition, the relative viability in experiment [2] (first compound 0.1265 µM) came to 0.415; in experiment [2] (first compound 0.4 µM) it was 0.3; in experiment [2] (first compound 1.265 µM) it was 0.406; in experiment [2] (first compound 4 µM), 0.357; in experiment [3] (first compound 0.04 µM), 0.251; in experiment [3] (first compound 0.1265 µM), 0.207. The relative viability in experiment [3] (first compound 0.4 µM) was 0.123; in experiment [3] (first compound 1.265 µM), 0.196; in experiment [3] (first compound 4 µM), 0.137; in experiment [4] (first compound 0.25 µM), 1.13; in experiment [4] (first compound 0.7906 µM), 1.16; in experiment [4] (first compound 2.5 µM), 1.09. Also, the relative viability in experiment [4] (first compound 7.906 µM) was determined as 0.952; in experiment [4] (first compound 25 µM) it was 0.908.
